According to article PMC6093650, “Antidepressive and anxiolytic effects of ostruthin, a TREK-1 channel activator” (PLoS ONE, 2018):

Columns and labels:
TASK-1 = biological target: T1, TASK-1 (Homo sapiens, UniProt O14649); test: whole-cell patch-clamp of TASK-1 currents in a 293T cell line; assay type: cell-based; conditions: n = 10
T1 construct: expressed in transfected cells
Source text: (§1) For recordings of K^+ channel currents, we prepared stable cell lines for TREK-1, TWIK-related acid-sensitive K^+ channel (TASK-1), strongly inwardly rectifying K^+ channel (Kir2.1), and human ether-a-go-go-related gene (HERG-1) channels and transiently expressed other channels in 293T cells using a calcium-phosphate transfection method. For the establishment of the stable lines, we used lentiviral vectors, and the preparation methods for the lentiviral vectors were described in our previous report. TR-1 cells, which stably expressed TREK-1 channel and were grown on a small cover glass (3 × 18 mm), were placed in a recording chamber with an internal volume of 200 μl. Whole-cell currents were recorded in Tyrode solution using an Axopatch 200B amplifier (Axon Instruments, Foster City, CA) at 25°C. Tyrode solution contained (in mM): NaCl 140, KCl 5.4, NaH2PO4 0.33, CaCl2 2, MgCl2 1, HEPES 5, and glucose 5.5 (pH 7.4 adjusted with NaOH). […] Perfusion (100 μl/min) was continued to maintain the water level throughout recordings. pH and osmotic pressure of solutions were measured with a pH meter (Horiba, Kyoto, Japan) and a freezing point osmometer (Knauer, Berlin, Germany), respectively. […]

[1] = tested on: depression-like behavior of mice; test: forced swim test; assay type: in vivo; conditions: 0, 2, 5, 20 mg/kg i.p. 30 min before test, dose-dependent, last 4 min of 6 min, n = 8
Source text: Male ICR mice (n = 317 in total) aged 5 weeks and weighing 32 ± 2 g were purchased from Shimizu Laboratory Supplies (Kyoto, Japan). For the social defeat stress test, we used 28 C57BL/6J mice (5 weeks old, Shimizu Laboratory Supplies) and 30 ICR mice (7–8 weeks old, Charles River Labs Japan, Yokohama, Kanagawa, Japan). Mice were maintained for at least 1 week prior to experiments. Animals were kept in groups in plastic cages. They had free access to food and water, and were kept in a 12-h light/dark cycle (08:00–20:00). Experiments were carried out between 10:00 and 18:00 in a quiet and air-conditioned experimental room, in which mice were habituated for at least 30 min before each experiment. Animal experiments were performed in accordance with the guidelines of the Physiological Society of Japan and were approved by the Committees on Animal Experiments at Kansai Medical University and the Kurashiki University of Science and the Arts. Ostruthin was initially dissolved in DMSO at higher concentration (100 mM) and then diluted in phosphate-buffered saline (PBS). The diluted solution was mixed vigorously for more than 10 min before the experiments, and an equal volume of DMSO was added to PBS as a control. […]
The forced swim test was performed in accordance with a method reported previously. […] Mouse was allowed to swim for 6 min and the activity was measured. […]

Kv1.4 = Kv1.4 (Homo sapiens, UniProt P22459); test: whole-cell patch-clamp of Kv1.4 currents in 293T cells; assay type: cell-based; conditions: n = 5
Source text: as §1

Chain of Kv1.4 (P22459 whole entry): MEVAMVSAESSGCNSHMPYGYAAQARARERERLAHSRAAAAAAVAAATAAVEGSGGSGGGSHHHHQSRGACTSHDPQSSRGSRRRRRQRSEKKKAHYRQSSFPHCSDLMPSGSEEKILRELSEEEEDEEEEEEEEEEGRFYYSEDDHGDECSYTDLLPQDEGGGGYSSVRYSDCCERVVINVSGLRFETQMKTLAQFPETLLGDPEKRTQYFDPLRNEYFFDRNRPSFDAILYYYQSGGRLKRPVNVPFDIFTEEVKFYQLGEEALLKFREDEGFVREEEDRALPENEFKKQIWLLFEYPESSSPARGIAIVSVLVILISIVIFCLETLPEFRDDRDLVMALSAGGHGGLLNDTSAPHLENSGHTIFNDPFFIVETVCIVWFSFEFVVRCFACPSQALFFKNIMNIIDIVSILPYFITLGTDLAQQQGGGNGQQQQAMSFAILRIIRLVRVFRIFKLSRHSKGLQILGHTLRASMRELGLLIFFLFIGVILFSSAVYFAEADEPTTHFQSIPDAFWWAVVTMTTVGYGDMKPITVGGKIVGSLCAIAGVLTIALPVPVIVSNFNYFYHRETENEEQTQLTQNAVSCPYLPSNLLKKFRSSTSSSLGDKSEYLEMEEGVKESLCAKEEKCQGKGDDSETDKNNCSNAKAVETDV
T1 sequence (O14649 whole entry, species assumed): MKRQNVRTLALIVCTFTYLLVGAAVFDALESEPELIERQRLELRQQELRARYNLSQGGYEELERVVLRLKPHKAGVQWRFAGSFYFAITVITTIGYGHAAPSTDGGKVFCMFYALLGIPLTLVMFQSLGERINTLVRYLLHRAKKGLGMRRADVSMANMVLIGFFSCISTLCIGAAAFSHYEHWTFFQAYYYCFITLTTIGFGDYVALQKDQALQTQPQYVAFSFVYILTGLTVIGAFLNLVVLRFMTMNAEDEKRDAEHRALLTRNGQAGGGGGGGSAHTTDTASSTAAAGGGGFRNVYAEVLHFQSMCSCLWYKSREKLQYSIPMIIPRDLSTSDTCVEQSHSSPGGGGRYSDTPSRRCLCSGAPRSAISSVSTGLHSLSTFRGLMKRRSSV

In the case of `CC(C)=CCC/C(C)=C/Cc1cc2ccc(=O)oc2cc1O` [ostruthin], the IC50 (TASK-1) is reported as 41 µM, the time spent immobile [1] is reported as “decreased” and the IC50 (Kv1.4) is reported as 269 µM.
